Measured values taken from US7588788B2, “Immune modulation and anti-allergy activities of Zingiber zerumbet” (Wholesome Life Science Co., Ltd., priority 2004, dated 2009).

Assays:
Th1/Th2 immune responses = test: Active compound identification by in vitro bioactive screening of purification fractions; assay type: cell-based; conditions: compound identified from active fractions
[1] = system: Rat Basophilic Leukemia-1 (RBL-1) cell, LTC4 secretion; test: LTC4 released by A23187 stimulated leukemia cells (ELISA); assay type: cell-based; conditions: compound identified from the most active fraction
Description: Cell culture and drug treatment: Rat Basophilic Leukemia-1 (RBL-1) was purchased from Food Industry Research and Development Institute (CCRC 60198, ATCC CRL-1378), and cultured in MEM-alpha medium (Gibco, 12000). All trans-retinoic acid (1 μg/ml) was added to a 3.5 cm diameter well (6-well plate) at 2×10^6 cells/2 ml/well. Plates were then incubated at 37° C. with 5% CO2 in air for 16 hr. Various volumes of ZZ samples were added to the wells to make the appropriate final concentrations (0, 0.5, 5, 50 μg/ml) and incubated for 2 more hours. A23187 (calcium ionophore) was added to each well to reach the final concentration of 10 μM to stimulate RBL-1 cells to release LTC4/cLTs for 15 min. The mediums in the wells were centrifuged at 5000 rpm for 10 min to obtain the supernatant for ELISA assay.
LTC4/cLTs ELISA assay: The supernatants of the cell cultures were diluted into appropriate concentrations before the EIA analysis for LTC4/cLTs. Analysis was performed according to the procedures provided by the manufacturer.

Row | Compound | increase of the IFN-γ/IL-4 gene expression ratio (Th1/Th2 immune responses) | effect of suppressing LTC4 [1]
1 | C/C1=C\CC(C)(C)/C=C/C(=O)/C(C)=C/CC1 [Zerumbone, zerumbone] | active ingredient | –
2 | COc1c(-c2ccc(O)cc2)oc2cc(O)cc(O)c2c1=O [5,7-dihydroxy-2-(4-hydroxy-phenyl)-3-methoxy-chromen-4-one] | – | active compound
